Measured values reported in patent publication US9580430B2, “9H-pyrimido[4,5-B]indoles and related analogs as BET bromodomain inhibitors” (THE REGENTS OF THE UNIVERSITY OF MICHIGAN, priority 2014, dated 2017).
Where two headings read alike, the source gives them in different places.

Experiments:
MOLM-13 = test: Cell growth inhibition, MOLM-13 leukemia cells (CellTiter-Glo); format: cell-based; conditions: Homo sapiens, MOLM-13, 96 h; 4 days; read-out: IC50 (nM) MOLM-13 Cell Line (CellTiter-Glo assay)
Experimental: Cell growth inhibitory activity of representative Compounds of the Disclosure was determined using CellTiter-Glo® Luminescent Cell Viability Assay. […] Cell viability was determined using the CellTiter-Glo® Luminescent Cell Viability Assay Kit (Promega, Madison, Wis.) according to the manufacture's instruction. Briefly, a volume of CellTiter-Glo® Reagent equal to the volume of cell culture medium was added to each well, and then the plates were incubated at room temperature for 10-20 minutes. The luminescent signal was measured using a Tecan Infinite M1000 multimode microplate reader (Tecan, Morrisville, N.C.). The half maximal inhibitory concentration (IC50) was calculated using the GraphPad Prism 5 software (GraphPad Software, La Jolla, Calif.).

MDA-MB-436 = test: Cell growth inhibition, MDA-MB-436 breast cancer cells (WST-8); format: cell-based; conditions: Homo sapiens, 4 days
Experimental: All the breast cancer cell lines were obtained from the ATCC. Cell viability was determined using the WST-8 (2-(2-methoxy-4-nitrophenyl)-3-(4-nitrophenyl)-5-(2,4-disulfophenyl)-2H-tetrazolium, monosodium salt) based Cell Counting-8 Kit (Dojindo Molecular Technologies, Inc., Rockville, Md.) according to the manufacture's instruction. […] The absorbance was measured at 450 nm using a SPECTRAmax PLUS plate reader (Molecular Devices, Sunnyvale, Calif.). The IC50 was calculated using the GraphPad Prism 5 software.

recombinant BRD4 BD2 = molecular target: T1, recombinant BRD4 BD2 (Homo sapiens, UniProt O60885); test: Competitive fluorescence-polarization (FP) binding assay, BRD4 BD2; conditions: for Ki: read-out: Binding affinities (FP) BRD4BD2 Ki; as to IC50 (nM) BRD4 BD2: probe 1.5 nM
T1 construct: for recombinant BRD4 BD1 and BRD4 BD2 proteins
Experimental: (§1) Fluorescence Polarization (FP) competitive binding studies were carried out using a FAM labeled fluorescent probe (ZBA248 or BRD-1F) to determine binding affinities of representative Compounds of the Disclosure for recombinant BRD4 BD1 and BRD4 BD2 proteins. For example, equilibrium dissociation constants (Kd) values of ZBA248 to these […] proteins were determined from protein saturation experiments by monitoring the total fluorescence polarization of mixtures composed with the fluorescent probe at a fixed concentration and proteins with increasing concentrations up to full saturation. Serial dilutions of testing protein were mixed with ZBA248 to a final volume of 200 μl in the assay buffer. […] Plates were incubated at room temperature for 30 minutes with gentle shaking to assure equilibrium. […] Kd values of ZBA248 were calculated by fitting the sigmoidal dose-dependent FP increases as a function of protein concentrations using Graphpad Prism 6.0 software (Graphpad Software, San Diego, Calif.).
(§2) The IC50 and Ki values of representative Compounds of the Disclosure were determined in a competitive binding experiment as described above. Mixtures of 10 μl of the tested compounds in assay buffer with 40% Ethylene Glycol and 190 μl of preincubated protein/probe complex solution in the assay buffer (100 mM potassium phosphate, pH 6.5, 0.01% Triton X-100) were added into assay plates which were incubated at room temperature for 30 minutes with gentle shaking. Final concentrations of proteins were 10 and 6 nM in assays for BD1 and BD2 of BRD4, respectively. […] FP values were measured as described above. IC50 values were determined by nonlinear regression fitting of the competition curves.

recombinant BRD4 BD1 = molecular target: T2, recombinant BRD4 BD1 (Homo sapiens, UniProt O60885); test: Competitive fluorescence-polarization (FP) binding assay, BRD4 BD1; conditions: for Ki: read-out: Binding affinities (FP) BRD4BD1 Ki; as to IC50 (nM) BRD4 BD1: probe 1.5 nM
T2 construct: for recombinant BRD4 BD1 and BRD4 BD2 proteins
Experimental: as §1, §2

[1] = MDA-MB-436, 96 h, read-out: IC50 (nM) MDA-MB-436 Cell Line (WST assay)
[2] = competitive FP assay, protein 6 nM, probe […], read-out: IC50 (nM) BRD4 BD2
[3] = competitive FP assay, protein 10 nM, probe […], read-out: IC50 (nM) BRD4 BD1
[4] = 96 h, MDA-MB-436 cells, read-out: Cellular data MDA-MB-436 IC50
[5] = FP competitive binding, BRD4 BD2, read-out: Binding affinities (FP) BRD4BD2 IC50
[6] = FP competitive binding, BRD4 BD2
[7] = FP competitive binding, BRD4 BD1, read-out: Binding affinities (FP) BRD4BD1 IC50
[8] = FP competitive binding, BRD4 BD1

Row | IC50 (MOLM-13) [nM] | IC50 (MDA-MB-436; [1]) [nM] | IC50 (recombinant BRD4 BD2; [2]) [nM] | IC50 (recombinant BRD4 BD1; [3]) [nM] | IC50 (MDA-MB-436; [4]) [nM] | IC50 (recombinant BRD4 BD2; [5]) [nM] | Ki (recombinant BRD4 BD2; [6]) [nM] | IC50 (recombinant BRD4 BD1; [7]) [nM] | Ki (recombinant BRD4 BD1; [8]) [nM] | Structure (SMILES)
1 | 29.8 | 148 | 21.8 | – | – | – | – | – | – | COc1cc2c(cc1-c1c(C)noc1C)[nH]c1nc(C)nc(Nc3cc(C)nn3-c3ccccc3)c12 [Cpd. No. 1, 7-(3,5-Dimethylisoxazol-4-yl)-6-methoxy-2-methyl-N-(3-methyl-1-phenyl-1H-pyrazol-5-yl)-9H-pyrimido[4,5-b]indol-4-amine]
2 | 68 | 246 | 41.9 | – | – | – | – | – | – | COc1cc2c(cc1-c1c(C)noc1C)[nH]c1nc(C)nc(Nc3c[nH]nc3-c3ccccc3)c12 [Cpd. No. 2, 7-(3,5-Dimethylisoxazol-4-yl)-6-methoxy-2-methyl-N-(3-phenyl-1H-pyrazol-4-yl)-9H-pyrimido[4,5-b]indol-4-amine]
3 | 38.4 | 386 | 183 | 540 | – | – | – | – | – | COc1cc2c(cc1-c1c(C)noc1C)[nH]c1nc(C)nc(Sc3nnc(C)n3C(C)C)c12 [Cpd. No. 3, 4-(4-((4-Isopropyl-5-methyl-4H-1,2,4-triazol-3-yl)thio)-6-methoxy-2-methyl-9H-pyrimido[4,5-b]indol-7-yl)-3,5-dimethylisoxazole]
4 | 69.3 | 249 | 21.7 | 52.9 | – | – | – | – | – | COc1cc2c(cc1-c1c(C)noc1C)[nH]c1nc(C)nc(Nc3c(-c4ccccc4)nn(C(C)C)c3C)c12 [Cpd. No. 4, 7-(3,5-Dimethylisoxazol-4-yl)-N-(1-isopropyl-5-methyl-3-phenyl-1H-pyrazol-4-yl)-6-methoxy-2-methyl-9H-pyrimido[4,5-b]indol-4-amine]
5 | 475 | 719 | 381 | 340 | – | – | – | – | – | COc1cc2c(cc1-c1c(C)noc1C)[nH]c1nc(C)nc(Nc3n[nH]c(C)c3-c3ccccc3)c12 [Cpd. No. 5, 7-(3,5-Dimethylisoxazol-4-yl)-6-methoxy-2-methyl-N-(5-methyl-4-phenyl-1H-pyrazol-3-yl)-9H-pyrimido[4,5-b]indol-4-amine]
6 | 52.6 | 1520 | – | – | – | – | – | – | – | COc1cc2c(cc1-c1c(C)noc1C)[nH]c1nc(C)nc(Nc3sc(-c4ncco4)nc3-c3ccccc3)c12 [Cpd. No. 6, N-(7-(3,5-Dimethylisoxazol-4-yl)-6-methoxy-2-methyl-9H-pyrimido[4,5-b]indol-4-yl)-2-(oxazol-2-yl)-4-phenylthiazol-5-amine]
7 | 56.3 | 142 | 198 | 365 | – | – | – | – | – | COc1cc2c(cc1-c1c(C)noc1C)[nH]c1nc(C)nc(Nc3cc(C)nn3-c3cccc(Cl)c3)c12 [Cpd. No. 7, N-(1-(3-Chlorophenyl)-3-methyl-1H-pyrazol-5-yl)-7-(3,5-dimethylisoxazol-4-yl)-6-methoxy-2-methyl-9H-pyrimido[4,5-b]indol-4-amine]
8 | 10.3 | 55.1 | 8 | 9.7 | – | – | – | – | – | COc1cc2c(cc1-c1c(C)noc1C)[nH]c1nc(C)nc(Nc3cc(C)nn3C)c12 [Cpd. No. 8, N-(1,3-Dimethyl-1H-pyrazol-5-yl)-7-(3,5-dimethylisoxazol-4-yl)-6-methoxy-2-methyl-9H-pyrimido[4,5-b]indol-4-amine]
9 | 5 | 29.6 | 6.3 | 6.1 | – | – | – | – | – | COc1cc2c(cc1-c1c(C)noc1C)[nH]c1nc(C)nc(Nc3cc(C)nn3C(C)C)c12 [Cpd. No. 9, 7-(3,5-Dimethylisoxazol-4-yl)-N-(1-isopropyl-3-methyl-1H-pyrazol-5-yl)-6-methoxy-2-methyl-9H-pyrimido[4,5-b]indol-4-amine]
10 | 15.2 | 59.6 | 28.2 | – | – | – | – | – | – | COc1cc2c(cc1-c1c(C)noc1C)[nH]c1nc(C)nc(Nc3nn(C)c4ccccc34)c12 [Cpd. No. 12, 7-(3,5-Dimethylisoxazol-4-yl)-6-methoxy-2-methyl-N-(1-methyl-1H-indazol-3-yl)-9H-pyrimido[4,5-b]indol-4-amine]
11 | 90.9 | 177 | – | 62.4 | – | – | – | – | – | COc1cc2c(cc1-c1c(C)noc1C)[nH]c1nc(C)nc(Nc3cc(C(F)(F)F)nn3C(C)(C)C)c12 [Cpd. No. 117, N-(1-(tert-Butyl)-3-(trifluoromethyl)-1H-pyrazol-5-yl)-7-(3,5-dimethylisoxazol-4-yl)-6-methoxy-2-methyl-9H-pyrimido[4,5-b]indol-4-amine]
12 | 178 | 508 | – | – | – | – | – | – | – | COc1cc2c(cc1-c1c(C)noc1C)[nH]c1nc(C)nc(Nc3nn(C)c4ccc(F)cc34)c12 [Cpd. No. 127, 7-(3,5-Dimethylisoxazol-4-yl)-N-(5-fluoro-1-methyl-1H-indazol-3-yl)-6-methoxy-2-methyl-9H-pyrimido[4,5-b]indol-4-amine]
13 | 1130 | – | > 1000 | > 1000 | – | – | – | – | – | COc1cc2c(cc1-c1c(C)noc1C)[nH]c1nc(C)nc(Nc3cccc4cccnc34)c12 [Cpd. No. 210, 7-(3,5-dimethylisoxazol-4-yl)-6-methoxy-2-methyl-N-(quinolin-8-yl)-9H-pyrimido[4,5-b]indol-4-amine]
14 | 9340 | – | 15 | 17 | – | – | – | – | – | COc1cc(C)cc(Nc2nc(C)nc3[nH]c4cc(-c5c(C)noc5C)c(OC)cc4c23)c1 [Cpd. No. 218, 7-(3,5-dimethylisoxazol-4-yl)-6-methoxy-N-(3-methoxy-5-methylphenyl)-2-methyl-9H-pyrimido[4,5-b]indol-4-amine]
15 | – | – | – | – | 1140 | 139 | 44 | 74 | 27 | COc1nc2c(cc1-c1c(C)noc1C)[nH]c1nc(C)nc(N(C)c3cccc(C)c3)c12 [compound 317, 7-(3,5-dimethylisoxazol-4-yl)-6-methoxy-N,2-dimethyl-N-(m-tolyl)-9H-pyrido[2′,3′:4,5]pyrrolo[2,3-d] pyrimidin-4-amine]
16 | – | – | – | – | 299 | 108 | 34 | 35 | 12 | COc1nc2c(cc1-c1c(C)noc1C)[nH]c1nc(C)nc(N(C)c3nn(C)c4ncccc34)c12 [compound 318, 7-(3,5-dimethylisoxazol-4-yl)-6-methoxy-N,2-dimethyl-N-(1-methyl-1H-pyrazolo[3,4-b]pyridin-3-yl)-9H-pyrido[2′,3′:4,5]pyrrolo[2,3-d] pyrimidin-4-amine]
17 | – | – | – | – | 646 | 92 | 27 | 102 | 38 | COc1nc2c(cc1-c1c(C)noc1C)[nH]c1nc(C)nc(N(C)c3c(C)cnn3C(C)C)c12 [compound 319, 7-(3,5-dimethylisoxazol-4-yl)-N-(1-isopropyl-4-methyl-1H-pyrazol-5-yl)-6-methoxy-N,2-dimethyl-9H-pyrido[2′,3′:4,5]pyrrolo[2,3-d] pyrimidin-4-amine]
18 | – | – | – | – | 85 | 7 | 1.3 | 10.2 | 1.8 | COc1nc2c(cc1-c1c(C)noc1C)[nH]c1nc(C)nc(N(C)c3cc(C4CC4)nn3C)c12 [compound 320, N-(3-cyclopropyl-1-methyl-1H-pyrazol-5-yl)-7-(3,5-dimethylisoxazol-4-yl)-6-methoxy-N,2-dimethyl-9H-pyrido[2′,3′:4,5]pyrrolo[2,3-d] pyrimidin-4-amine]
19 | – | – | – | – | 4430 | 796 | 239 | 482 | 171 | COc1nc2c(cc1-c1c(C)noc1C)[nH]c1nc(C)nc(N(C)C3CCCC3)c12 [compound 321, N-cyclopentyl-7-(3,5-dimethylisoxazol-4-yl)-6-methoxy-N,2-dimethyl-9H-pyrido[2′,3′:4,5]pyrrolo[2,3-d] pyrimidin-4-amine]
